Measured values published in patent US20140039044A1, “Hydroxylated Polymethoxyflavone Compositions” (WLLGEN, INC., priority 2006, published 2014).
Like-named read-outs stand apart in the source and are kept apart here.

Columns and labels:
Type in all cases: cell-based, human
[1] = tested on: HT-29 cells; assay: Cell survival assay (antiproliferative IC50)
Experimental: Human colon carcinoma COLO205 and HT-29 cell lines (American Type Culture Collection (ATTC), Manassas, Va.) and the leukemia cell line HL-60 were maintained at 37° C. in 5% CO2 air in RPMI 1640 medium supplemented with 10% heat-inactivated fetal bovine serum (Gibco BRL, Grand Island, N.Y.), 100 units/mL penicillin, 100 μg/mL streptomycin and 2 mM 1-glutamine. The human gastric carcinoma AGS cell line (CCRC 60102), obtained from the Food Industry Research and Development Institute (Hsinchu, Taiwan), was maintained as described above, except that DMEM/F 12 was used as the medium rather than the RPMI 1640 medium. The human breast carcinoma MCF-7 cell line MCF-7 (ATTC) was cultured in RPMI 1640 medium supplemented with 5% fetal calf serum at 37° C. in a humidified atmosphere of 5% CO2 in air. The mouse macrophage cell line RAW 264.7 was maintained in RPMI 1640 supplemented with 100 U/ml penicillin, 100 μg/ml streptomycin, and 10% heat-inactivated fetal calf serum.
Cancer cells (2×10^5) were plated in 12-well Petri dishes. The next day, the medium was changed and treated with different concentration of the test compounds or compositions for 24 h. Where individual compounds were to be tested, stock solutions of the compound was prepared to contain 200 μM of the individual hydroxylated or non-hydroxylated PMF in dimethylsulfoxide (DMSO). Control cells were treated with DMSO to a final concentration of 0.05% (v/v). Depending on the objective of the particular experiment, cells were treating with test compound or composition for 1, 3 or 6 days. At the end of incubation, cells were harvested for cell count using a hemocytometer and measuring the cellular total nucleic acid content with the CyQUANT Cell Proliferation Assay Kit (Molecular Probes).
(§1) The PMF compounds were assayed in vitro for cell growth inhibition and for their ability to induce apoptosis in various human cancer cells, including HL-60, AGS, COLO 205, and HT-29 cells, using methods described in Section 8.4 above. Antiproliferative (IC50) and apoptosis-inducing activity (AC50) of PMFs in the HL-60, AGS, COLO 205, and HT-29 cells are reported in Table 9, where *P<0.05, **P<0.01 and ***P<0.001 indicate statistically significant differences from the control group.

[2] = tested on: AGS cells; assay: Apoptotic ratio by propidium iodide flow cytometry (AC50); conditions: AGS cells
Experimental: (§2) The human cancer cells (2×10^5) were cultured in 60-mm Petri dishes and incubated for 24 h. After treated with test compounds for 24 h, the cells were then harvested, washed with PBS resuspended in 200 μL of PBS, and fixed in 800 μL of iced 100% ethanol at −20° C. After being left to stand overnight, the cell pellets were collected by centrifugation, resuspended in 1 mL of hypotonic buffer (0.5% Triton X-100 in PBS and 0.5 μg/mL RNase) and incubated at 37° C. for 30 min. Next, 1 mL of propidium iodide solution (50 μg/mL) was added, and the mixture was allowed to stand on ice for 30 min. Fluorescence emitted from the propidium iodide-DNA complex was quantitated after excitation of the fluorescent dye by FACScan cytometry (Becton Dickinson, San Jose, Calif.).
(§3) 1 N PMF and 6 N PMF compositions containing hydroxylated PMFs, prepared as described in Section 8.3 above, 70% PMF OPE and 5,6,7,8,3′,4′-hexamethoxyflavone (nobiletin) were tested for antiproliferative activity and apoptosis-inducing activity in HL-60, AGS and COLO205 cells as described in Section 8.4 above. Antiproliferative and apoptosis-inducing activities were derived as IC50 values and AC50, values, respectively, where AC50 is the concentration required for 50% apoptosis.
as §1

[3] = tested on: COLO205 cells; assay: as above; conditions: COLO205 cells
Experimental: as §2, §3, §1

[4] = tested on: HL-60 cells; assay: as above; conditions: HL-60 cells
Experimental: as §2, §3, §1

[5] = tested on: HL-60 cells; assay: Cell cycle distribution by flow cytometry; conditions: 24 h; for Cell cycle arrest, in words: 25-100 μM
Experimental: as §2
The effects of the hydrolyzed PMF-enriched compositions, nobiletin and 70% PMF OPE on cell cycle distribution were studied, following the procedures described in Section 8.4. Results for cell cycle distribution in HL-60 cells, COLO205 cells and AGS cells are provided in Table 5, Table 6 and Table 7, respectively. […] In HL-60 cells, G2/M arrest predominated in cells treated with 6N PMF concentrations ≧5 μM and with 1N PMF concentrations ≧25 μM.
Compounds A-K were evaluated in terms of their effects in arresting cell cycle progression by observing cell cycle phase distribution in cells treated with the compounds. Cells were treated with 5, 10, 25, 50, and 100 μM of one of compound A-K or DMSO (control) for 24 h and subjected to flow cytometric analysis after staining their DNA, as described above.

[6] = read-out: Apoptosis-inducing AC50
[7] = Homo sapiens, read-out: Apoptosis-inducing AC50
[8] = Homo sapiens, COLO 205, read-out: Apoptosis-inducing AC50
[9] = Homo sapiens, Table 4, read-out: Apoptosis-inducing AC50 (concentration required for 50% apoptosis)

| Compound | Cell Cycle Distribution G0/G1 ([5]; 5 μM, Table 10) | Cell Cycle Distribution G2/M ([5]; 5 μM, Table 10) | Cell Cycle Distribution S ([5]; 5 μM, Table 10) | Cell Cycle Distribution G0/G1 ([5]; 10 μM, Table 10) | Cell Cycle Distribution G2/M ([5]; 10 μM, Table 10) | Cell Cycle Distribution S ([5]; 10 μM, Table 10) | Cell Cycle Distribution G0/G1 ([5]; 25 μM, Table 10) | Cell Cycle Distribution G2/M ([5]; 25 μM, Table 10) | Cell Cycle Distribution S ([5]; 25 μM, Table 10) | Cell Cycle Distribution G0/G1 ([5]; 50 μM, Table 10) | Cell Cycle Distribution G2/M ([5]; 50 μM, Table 10) | Cell Cycle Distribution S ([5]; 50 μM, Table 10) | Cell Cycle Distribution G0/G1 ([5]; 100 μM, Table 10) | Cell Cycle Distribution G2/M ([5]; 100 μM, Table 10) | Cell Cycle Distribution S ([5]; 100 μM, Table 10) | Cell cycle arrest, in words [5] | IC50 ([1]; Homo sapiens) | AC50 [2, 7] | AC50 [3, 8] | AC50 [4, 7] | further results |
| --- | --- | --- | --- | --- | --- | --- | --- | --- | --- | --- | --- | --- | --- | --- | --- | --- | --- | --- | --- | --- | --- |
| COc1ccc(-c2oc3c(OC)c(OC)c(OC)c(OC)c3c(=O)c2OC)cc1OC [D, 3,5,6,7,8,3,4-heptamethoxyflavone, reference compound] | 50.66 ± 1.20 | 4.88 ± 0.49 | 44.46 ± 0.49 | 52.79 ± 0.99 | 5.09 ± 0.35 | 42.12 ± 0.49 | 57.63 ± 0.14 | 0.09 ± 0.71 | 42.28 ± 0.57 | 80.79 ± 0.71 | 0.21 ± 0.42 | 19.00 ± 0.78 | 84.06 ± 0.57 | 0.47 ± 0.21 | 15.47 ± 1.06 | significant G1 arrest | – | – | – | – | IC50 [1]: > 100 µM; AC50 [2, 6]: > 100 µM; AC50 [3, 6]: > 100 µM; AC50 [4, 6]: > 100 µM |
| COc1ccc(-c2cc(=O)c3c(O)c(OC)c(OC)c(OC)c3o2)cc1OC [J, 5-hydroxy-6,7,8,3′,4′-pentamethoxyflavone] | 53.10 ± 0.46 | 7.94 ± 0.06 | 38.96 ± 0.51 | 51.74 ± 1.57 | 9.06 ± 0.54 | 39.20 ± 2.10 | 51.30 ± 1.68 | 8.20 ± 1.19 | 40.50 ± 2.87 | 49.22 ± 0.13 | 7.93 ± 0.36 | 42.86 ± 0.48 | 51.29 ± 0.74 | 7.45 ± 0.83 | 41.27 ± 0.09 | – | > 100 µM | > 100 µM | > 100 µM | > 100 µM | – |
| COc1cc(-c2cc(=O)c3c(OC)c(OC)c(OC)c(OC)c3o2)cc(OC)c1OC [F, 5,6,7,8,3′,4′,5′-heptamethoxyflavone, reference compound] | 42.11 ± 0.37 | 10.56 ± 1.16 | 47.34 ± 1.53 | 48.35 ± 1.83 | 10.59 ± 1.46 | 41.07 ± 0.37 | 57.82 ± 1.51 | 7.28 ± 1.54 | 34.90 ± 0.03 | 60.39 ± 0.23 | 8.44 ± 0.54 | 31.18 ± 0.30 | 63.66 ± 2.33 | 4.92 ± 0.46 | 31.43 ± 1.87 | significant G1 arrest | 96.4 ± 8.66 µM | > 100 µM | > 100 µM | > 100 µM | – |
| COc1ccc(-c2cc(=O)c3c(OC)c(OC)c(OC)c(OC)c3o2)cc1OC [Compound A, 5,6,7,8,3′,4′-hexamethoxyflavone, reference compound] | 41.42 ± 0.14 | 8.15 ± 0.49 | 50.73 ± 0.42 | 50.36 ± 1.06 | 2.75 ± 0.57 | 46.88 ± 0.28 | 66.18 ± 0.71 | 2.77 ± 0.85 | 31.06 ± 0.99 | 64.40 ± 0.49 | 7.67 ± 0.57 | 27.93 ± 0.35 | 62.05 ± 0.14 | 7.35 ± 0.14 | 30.60 ± 0.35 | significant G1 arrest | > 100 µM | > 100 µM | > 100 µM | > 100 µM | AC50 [2, 9]: > 100 µg/mL; AC50 ([3]; Homo sapiens, COLO 205, Table 4, read-out: Apoptosis-inducing AC50 (concentration required for 50% apoptosis)): > 100 µg/mL; AC50 [4, 9]: > 100 µg/mL; Cell Cycle Distribution G0/G1 ([5]; 5 μM, Table 5): 45.81 ± 0.16; Cell Cycle Distribution G2/M ([5]; 5 μM, Table 5): 0.02 ± 0.01; Cell Cycle Distribution S ([5]; 5 μM, Table 5): 54.29 ± 0.01; Cell Cycle Distribution G0/G1 ([5]; 10 μM, Table 5): 53.84 ± 0.45; Cell Cycle Distribution G2/M ([5]; 10 μM, Table 5): 5.73 ± 1.50; Cell Cycle Distribution S ([5]; 10 μM, Table 5): 40.44 ± 1.06; Cell Cycle Distribution G0/G1 ([5]; 25 μM, Table 5): 61.96 ± 3.55; Cell Cycle Distribution G2/M ([5]; 25 μM, Table 5): 5.93 ± 0.49; Cell Cycle Distribution S ([5]; 25 μM, Table 5): 32.12 ± 4.04; Cell Cycle Distribution G0/G1 ([5]; 50 μM, Table 5): 62.37 ± 1.85; Cell Cycle Distribution G2/M ([5]; 50 μM, Table 5): 6.44 ± 0.08; Cell Cycle Distribution S ([5]; 50 μM, Table 5): 31.20 ± 1.76; Cell Cycle Distribution G0/G1 ([5]; 100 μM, Table 5): 65.00 ± 3.41; Cell Cycle Distribution G2/M ([5]; 100 μM, Table 5): 4.18 ± 0.33; Cell Cycle Distribution S ([5]; 100 μM, Table 5): 30.81 ± 3.08 |
| COc1cc(-c2cc(=O)c3c(O)c(OC)c(OC)c(OC)c3o2)cc(OC)c1OC [E, 5-hydroxy-6,7,8,3′,4′,5′-hexamethoxyflavone] | 40.16 ± 1.10 | 6.01 ± 1.64 | 53.83 ± 0.54 | 40.43 ± 2.14 | 5.57 ± 1.17 | 54.01 ± 0.98 | 41.35 ± 2.50 | 6.27 ± 1.05 | 52.38 ± 1.46 | 37.64 ± 1.09 | 7.73 ± 0.62 | 54.64 ± 0.49 | 42.95 ± 0.11 | 7.27 ± 0.84 | 49.79 ± 0.95 | – | > 100 µM | > 100 µM | > 100 µM | > 100 µM | – |
